Source: patent US20130136827A1, “Method and Composition for Increasing The Proportion of Dietary Ingredients That Are Resistant To Degradation by Ruminal Microorganisms” (priority 2011, published 2013)

Experiments:
[1] = test system: microorganisms within the rumen ecosystem; conditions: Montgomery et al., J Anim Sci. 86(3):640-50; cited from earlier work
ruminal microbes = experiment: In situ ruminal incubation of samples in Dacron bags for 24 hours
Excerpt: The in situ procedure utilizes small in situ bags made of a nitrogen-free synthetic polyester fabric (Dacron®; Ankom Technology, Mecedon, N.Y.) that has a 50 μm pore size. The pores are sufficiently small such that when feed materials are placed into the bag the contents are retained. The pore size also is large enough to allow for entry of microorganisms into the bag when placed into the rumen, thus exposing the contents to the degradative actions of ruminal microbes. Disappearance of feed particles from the bag is presumed to be due to microbial fermentative activity whilst the bag and its contents are suspended within the rumen environment. In situ assays provide useful information regarding the susceptibility of feeds to microbial digestion within the rumen.
The test procedure consisted of adding 12 g of sample (as is) to Dacron bags, which then were heat sealed and subsequently placed into the rumen and allowed to incubate for 24 hours. Bags then were removed from the rumen, dried and weighed to determine disappearance of dry matter. Concentrations of protein, total fatty acids, and fatty acid profile were determined for the residue from each sample. Samples were prepared in duplicate within each animal, along with blank bags for correction, and six animals were used. Three cattle were fed a high-concentrate diet and 3 were fed a high-forage, i.e., low concentrate diet.
These values were used to calculate the extent of dry matter and nutrient disappearance during the in situ digestion procedure.

Structure (SMILES) | dietary ALA available for absorption in the postruminal digestive tract [1] | ruminally degraded / disappearance of dry matter, over Low and High concentrate groups (ruminal microbes; 24-hour period of ruminal incubation, text summary of Table VII) [%] | In situ dry matter disappearance (%), Mean (ruminal microbes; 24 hours of ruminal incubation, average of Low and High concentrate groups) [%] | In situ dry matter disappearance (%), High Concentrate (ruminal microbes; 24 hours of ruminal incubation, cattle on high-concentrate diet) [%] | In situ dry matter disappearance (%), Low Concentrate (ruminal microbes; 24 hours of ruminal incubation, cattle on high-forage/low concentrate diet) [%]
CC/C=C\C/C=C\C/C=C\CCCCCCCC(=O)O [ALA, Alpha-linolenic acid] | less than 5% | – | – | – | –
Cl.NCCCC[C@H](N)C(=O)O [Lysine, lysine hydrochloride] | – | ≥ 99.83 | 99.86 | 99.83 | 99.88
